Experimental data from the supplement of paper PMC13207355.

Experiments:
Details in all cases: exposure time: 72 h
[1] = tested on: E31 (patient-derived glioblastoma stem cells of proneural subtype); assay: surviving fraction (nuclei count normalised to DMSO); higher = more cells surviving (less toxic)
[2] = tested on: E28 (patient-derived glioblastoma stem cells of classical subtype); assay: as above
[3] = tested on: E21 (patient-derived glioblastoma stem cells of mesenchymal subtype); assay: as above
[4] = tested on: E13 (patient-derived glioblastoma stem cells of classical subtype); assay: as above
[5] = tested on: FT3469 (normal neural stem cell line); assay: as above
[6] = tested on: E34 (patient-derived glioblastoma stem cells of proneural subtype); assay: as above
[7] = tested on: E57 (patient-derived glioblastoma stem cells of mesenchymal subtype); assay: as above
[8] = tested on: E31; assay: phenotypic distance (Euclidean, principal components) from DMSO controls (arbitrary units); higher = stronger morphological change
[9] = tested on: E28; assay: as above
[10] = tested on: E21; assay: as above
[11] = tested on: E13; assay: as above
[12] = tested on: FT3469; assay: as above
[13] = tested on: E34; assay: as above
[14] = tested on: E57; assay: as above
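For phenotypic distance (Euclidean, principal components) from DMSO controls in this document: cell Painting imaging in 384-well plates, CellProfiler features reduced to at least 20 principal components, Euclidean distance versus same-plate DMSO vehicle wells (0.1% v/v), median over six images per well.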
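For surviving fraction (nuclei count normalised to DMSO) in this document: nuclei counted by high-content imaging of Hoechst-stained cells in laminin-coated 384-well plates, relative to 0.1% DMSO vehicle wells, with staurosporine as cell-death control.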

CN1C(=O)CC(c2ccccc2)C1=O (stereo unspecified) [Phensuximide]
Details | phenotypic distance | surviving fraction
[1], 4.1 nM | – | 1.08
[1], 12.3 nM | – | 1.07
[1], 37 nM | – | 1.1
[1], 111.1 nM | – | 1.01
[1], 333.3 nM | – | 1.14
[1], 1000 nM | – | 1.13
[1], 3000 nM | – | 0.991
[2], 4.1 nM | – | 1.07
[2], 12.3 nM | – | 1.03
[2], 37 nM | – | 1.15
[2], 111.1 nM | – | 1.09
[2], 333.3 nM | – | 1
[2], 1000 nM | – | 0.995
[2], 3000 nM | – | 1.2
[3], 4.1 nM | – | 0.998
[3], 12.3 nM | – | 0.996
[3], 37 nM | – | 1.03
[3], 111.1 nM | – | 1.04
[3], 333.3 nM | – | 1
[3], 1000 nM | – | 1.09
[3], 3000 nM | – | 0.963
[4], 4.1 nM | – | 0.921
[4], 12.3 nM | – | 0.916
[4], 37 nM | – | 1.01
[4], 111.1 nM | – | 1
[4], 333.3 nM | – | 1
[4], 1000 nM | – | 1.06
[4], 3000 nM | – | 0.927
[5], 4.1 nM | – | 0.946
[5], 12.3 nM | – | 0.989
[5], 37 nM | – | 1
[5], 111.1 nM | – | 1
[5], 333.3 nM | – | 0.985
[5], 1000 nM | – | 1.01
[5], 3000 nM | – | 1.15
[6], 4.1 nM | – | 0.918
[6], 12.3 nM | – | 1.14
[6], 37 nM | – | 0.912
[6], 111.1 nM | – | 0.81
[6], 333.3 nM | – | 1.16
[6], 1000 nM | – | 1.1
[6], 3000 nM | – | 1.1
[7], 4.1 nM | – | 1.02
[7], 12.3 nM | – | 1.06
[7], 37 nM | – | 1.05
[7], 111.1 nM | – | 1.03
[7], 333.3 nM | – | 1.05
[7], 1000 nM | – | 1.04
[7], 3000 nM | – | 0.978
[8], 4.1 nM | 0.79 | –
[8], 12.3 nM | 0.39 | –
[8], 37 nM | 0.726 | –
[8], 111.1 nM | 0.491 | –
[8], 333.3 nM | 0.604 | –
[8], 1000 nM | 0.913 | –
[8], 3000 nM | 0.717 | –
[9], 4.1 nM | 0.664 | –
[9], 12.3 nM | 0.467 | –
[9], 37 nM | 0.453 | –
[9], 111.1 nM | 0.603 | –
[9], 333.3 nM | 0.45 | –
[9], 1000 nM | 0.513 | –
[9], 3000 nM | 0.714 | –
[10], 4.1 nM | 0.59 | –
[10], 12.3 nM | 0.489 | –
[10], 37 nM | 0.352 | –
[10], 111.1 nM | 0.519 | –
[10], 333.3 nM | 0.385 | –
[10], 1000 nM | 0.686 | –
[10], 3000 nM | 0.387 | –
[11], 4.1 nM | 1.82 | –
[11], 12.3 nM | 4.3 | –
[11], 37 nM | 2.63 | –
[11], 111.1 nM | 0.682 | –
[11], 333.3 nM | 0.274 | –
[11], 1000 nM | 0.544 | –
[11], 3000 nM | 0.597 | –
[12], 4.1 nM | 1.58 | –
[12], 12.3 nM | 0.664 | –
[12], 37 nM | 0.821 | –
[12], 111.1 nM | 0.515 | –
[12], 333.3 nM | 0.721 | –
[12], 1000 nM | 0.254 | –
[12], 3000 nM | 0.402 | –
[13], 4.1 nM | 0.49 | –
[13], 12.3 nM | 0.73 | –
[13], 37 nM | 0.867 | –
[13], 111.1 nM | 0.657 | –
[13], 333.3 nM | 1.01 | –
[13], 1000 nM | 0.819 | –
[13], 3000 nM | 0.663 | –
[14], 4.1 nM | 0.764 | –
[14], 12.3 nM | 0.516 | –
[14], 37 nM | 0.543 | –
[14], 111.1 nM | 0.342 | –
[14], 333.3 nM | 0.878 | –
[14], 1000 nM | 0.346 | –
[14], 3000 nM | 0.811 | –

Cc1nc2ccccn2c(=O)c1CCN1CCC(C(=O)c2ccc(F)cc2)CC1 [Pirenperone]
Details | phenotypic distance | surviving fraction
[1], 4.1 nM | – | 1.02
[1], 12.3 nM | – | 0.878
[1], 37 nM | – | 0.945
[1], 111.1 nM | – | 0.874
[1], 333.3 nM | – | 0.886
[1], 1000 nM | – | 0.857
[1], 3000 nM | – | 0.912
[2], 4.1 nM | – | 1.05
[2], 12.3 nM | – | 0.977
[2], 37 nM | – | 1.16
[2], 111.1 nM | – | 0.995
[2], 333.3 nM | – | 1.08
[2], 1000 nM | – | 1.07
[2], 3000 nM | – | 0.988
[3], 4.1 nM | – | 1.08
[3], 12.3 nM | – | 0.974
[3], 37 nM | – | 1.12
[3], 111.1 nM | – | 1.01
[3], 333.3 nM | – | 1.11
[3], 1000 nM | – | 1.12
[3], 3000 nM | – | 0.984
[4], 4.1 nM | – | 0.987
[4], 12.3 nM | – | 1.07
[4], 37 nM | – | 1.13
[4], 111.1 nM | – | 1.14
[4], 333.3 nM | – | 1.06
[4], 1000 nM | – | 1.02
[4], 3000 nM | – | 1.02
[5], 4.1 nM | – | 0.92
[5], 12.3 nM | – | 0.976
[5], 37 nM | – | 1.17
[5], 111.1 nM | – | 1.11
[5], 333.3 nM | – | 1.12
[5], 1000 nM | – | 1.05
[5], 3000 nM | – | 1.19
[6], 4.1 nM | – | 1.22
[6], 12.3 nM | – | 1.22
[6], 37 nM | – | 1.06
[6], 111.1 nM | – | 0.912
[6], 333.3 nM | – | 0.91
[6], 1000 nM | – | 1.01
[6], 3000 nM | – | 1.15
[7], 4.1 nM | – | 1.07
[7], 12.3 nM | – | 1.08
[7], 37 nM | – | 1.08
[7], 111.1 nM | – | 1.02
[7], 333.3 nM | – | 1.03
[7], 1000 nM | – | 1.03
[7], 3000 nM | – | 0.881
[8], 4.1 nM | 0.618 | –
[8], 12.3 nM | 0.402 | –
[8], 37 nM | 0.608 | –
[8], 111.1 nM | 0.551 | –
[8], 333.3 nM | 0.266 | –
[8], 1000 nM | 0.44 | –
[8], 3000 nM | 0.761 | –
[9], 4.1 nM | 0.892 | –
[9], 12.3 nM | 0.572 | –
[9], 37 nM | 0.636 | –
[9], 111.1 nM | 0.966 | –
[9], 333.3 nM | 0.52 | –
[9], 1000 nM | 0.489 | –
[9], 3000 nM | 0.806 | –
[10], 4.1 nM | 1 | –
[10], 12.3 nM | 0.656 | –
[10], 37 nM | 0.874 | –
[10], 111.1 nM | 0.825 | –
[10], 333.3 nM | 0.769 | –
[10], 1000 nM | 0.729 | –
[10], 3000 nM | 0.884 | –
[11], 4.1 nM | 0.486 | –
[11], 12.3 nM | 0.42 | –
[11], 37 nM | 0.709 | –
[11], 111.1 nM | 0.86 | –
[11], 333.3 nM | 0.944 | –
[11], 1000 nM | 0.709 | –
[11], 3000 nM | 2.42 | –
[12], 4.1 nM | 0.618 | –
[12], 12.3 nM | 0.837 | –
[12], 37 nM | 0.619 | –
[12], 111.1 nM | 0.898 | –
[12], 333.3 nM | 0.764 | –
[12], 1000 nM | 0.995 | –
[12], 3000 nM | 1.03 | –
[13], 4.1 nM | 0.796 | –
[13], 12.3 nM | 0.78 | –
[13], 37 nM | 0.668 | –
[13], 111.1 nM | 0.579 | –
[13], 333.3 nM | 0.636 | –
[13], 1000 nM | 0.719 | –
[13], 3000 nM | 0.659 | –
[14], 4.1 nM | 0.572 | –
[14], 12.3 nM | 0.766 | –
[14], 37 nM | 2.84 | –
[14], 111.1 nM | 0.668 | –
[14], 333.3 nM | 0.553 | –
[14], 1000 nM | 0.431 | –
[14], 3000 nM | 1.17 | –
